Here are results for 44 molecules from US10633338B2, “Binding Function 3 (BF3) site compounds as therapeutics and methods for their use” (THE UNIVERSITY OF BRITISH COLUMBIA, priority 2014, dated 2020).

SMILES strings stand for the structures. pIC50: −log10 of the molar value. Like-named read-outs stand apart in the source and are kept apart here.

In general, pIC50 refers to −log10 of the IC50, conventionally taken in molar units.

For one assay, the target named is T1, androgen receptor (AR) (Homo sapiens, UniProt P10275, T878A).
T1 construct: stably transfected eGFP-expressing LNCaP human prostate cancer cells (LN-ARR2PB-eGFP) containing an androgen responsive probasin-derived promoter; endogenous in cells; host or cells: LNCaP (LN-ARR2PB-eGFP)
T1 sequence (P10275 1-920 T878A): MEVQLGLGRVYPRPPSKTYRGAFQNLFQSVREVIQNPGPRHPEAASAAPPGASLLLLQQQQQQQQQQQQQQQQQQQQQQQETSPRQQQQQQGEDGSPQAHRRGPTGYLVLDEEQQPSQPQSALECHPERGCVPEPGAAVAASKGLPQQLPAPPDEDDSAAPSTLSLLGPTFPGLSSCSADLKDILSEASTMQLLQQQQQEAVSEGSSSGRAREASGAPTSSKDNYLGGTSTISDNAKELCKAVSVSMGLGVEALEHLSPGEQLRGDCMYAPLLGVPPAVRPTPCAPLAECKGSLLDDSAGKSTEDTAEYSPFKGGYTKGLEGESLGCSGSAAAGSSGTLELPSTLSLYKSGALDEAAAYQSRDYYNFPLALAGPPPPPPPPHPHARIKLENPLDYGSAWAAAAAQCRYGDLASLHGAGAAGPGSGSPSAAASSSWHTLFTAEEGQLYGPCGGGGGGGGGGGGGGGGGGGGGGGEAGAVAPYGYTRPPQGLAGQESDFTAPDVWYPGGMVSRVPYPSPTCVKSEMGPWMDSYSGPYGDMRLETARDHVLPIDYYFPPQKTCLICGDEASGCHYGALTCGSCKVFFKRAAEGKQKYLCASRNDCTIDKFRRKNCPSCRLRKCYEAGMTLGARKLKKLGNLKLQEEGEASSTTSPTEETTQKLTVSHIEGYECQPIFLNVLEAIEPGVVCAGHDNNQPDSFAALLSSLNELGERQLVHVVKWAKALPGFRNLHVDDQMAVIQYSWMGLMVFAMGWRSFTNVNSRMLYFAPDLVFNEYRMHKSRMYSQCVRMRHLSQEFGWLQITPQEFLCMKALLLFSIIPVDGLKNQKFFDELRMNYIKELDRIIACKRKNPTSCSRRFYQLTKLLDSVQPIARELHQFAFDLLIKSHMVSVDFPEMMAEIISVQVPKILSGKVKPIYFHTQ
Kind of assay: eGFP cellular AR transcription assay. The format is cell-based. The settings on record: LN-ARR2PBeGFP LNCaP cells, 0.1 nM R1881, 3 days incubation; for pIC50: read-out: eGFP IC50. The procedure, abridged:
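AR transcriptional activity is read as eGFP expression from a probasin-derived androgen-responsive promoter. Compound titrated 0-100 μM in the presence of 0.1 nM R1881; 35,000 cells/well.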

In the next assay the test system is PSA. Kind of assay: Prostate Surface Antigen (PSA) assay, PSA excreted into the media. The format is cell-based, human. The settings on record: PSA excreted into media, same plates as eGFP assay, 3 days incubation; for pIC50: read-out: PSA IC50. On the procedure:
The evaluation of PSA excreted into the media was performed in parallel to the eGFP assay using the same plates (see above description). After the cells were incubated for 3 days 150 μl of the media was taken from each well, and added to 150 μl of PBS.

For `Fc1cc(Cl)c2[nH]cc(-c3ccc4c(Cl)cccc4n3)c2c1` [Compound 13669], the “eGFP IC50” value at androgen receptor (AR) was “Inactive”. The “PSA IC50” value in the assay with PSA is “Inactive”.

For the molecule `O=[N+]([O-])c1cccc2nc(-c3c[nH]c4c(F)cc(F)cc34)ccc12` [Compound 13670], the “eGFP IC50” value at androgen receptor (AR) is reported as “Inactive”. In the assay on PSA, the “PSA IC50” value is given as “Inactive”.

Consider `Fc1cc(F)c2[nH]cc(-c3ccc4c(F)cccc4n3)c2c1` [Compound 13671], for which, on androgen receptor (AR), the “eGFP IC50” value is reported as “Inactive”. Further, the “PSA IC50” value in the assay with PSA is “Inactive”.

As to `Fc1cc(F)c2[nH]cc(-c3ccc4c(Cl)cccc4n3)c2c1` [Compound 13672], the “eGFP IC50” value on androgen receptor (AR) is “Inactive”. For the same molecule, the “PSA IC50” value with PSA is “Inactive”.

Take `O=C(O)c1cccc2nc(-c3c[nH]c4c(Cl)cc(F)cc34)ccc12` [Compound 13673]: the “eGFP IC50” value at androgen receptor (AR) is reported as “Inactive”. In addition, the “PSA IC50” value in the assay with PSA is recorded as “Inactive”.

Turning to `c1ccc2cc(-c3n[nH]c4ccccc34)ccc2c1` [Compound 13674], the negative logarithm of the IC50 (pIC50) was 7.12 on androgen receptor (AR) and 7.29 with PSA (Homo sapiens, 72 h).

On to `Cc1cccc2c(-c3ccc4c(Br)cccc4n3)c[nH]c12` [Compound 13678], for which, at androgen receptor (AR), the “eGFP IC50” value is listed as “Inactive”. In the assay on PSA, the “PSA IC50” value is reported as “Inactive”.

As to `Cc1cccc2c(-c3ccc4c(Br)ccc(Br)c4n3)c[nH]c12` [Compound 13679], the “eGFP IC50” value at androgen receptor (AR) is given as “Inactive”. For the same molecule, in the assay on PSA, the “PSA IC50” value is given as “Inactive”.

With `Cc1ccc(Cl)c2c(-c3ccc4ccccc4n3)c[nH]c12` [Compound 13681], the pIC50 is 5.60 at androgen receptor (AR) and 5.77 in the assay on PSA (Homo sapiens, 72 h).

On to `Fc1cc2[nH]cc(-c3ccc4cccc(C(F)(F)F)c4n3)c2cc1F` [Compound 13682], for which the negative logarithm of the IC50 (pIC50) at androgen receptor (AR) was 6.05; in the assay on PSA (Homo sapiens, 72 h), 6.00.

Turning to `Brc1ccc2[nH]cc(-c3ccc4ccccc4n3)c2c1` [Compound 13683], the pIC50 on androgen receptor (AR) was 5.59; with PSA (Homo sapiens, 72 h), 5.72.

Regarding `c1ccc2ncc(-c3n[nH]c4ccccc34)cc2c1` [Compound 13684], the negative-log IC50 (pIC50) on androgen receptor (AR) was 5.85; in the assay with PSA (Homo sapiens, 72 h) it was 5.18.

With `c1ccc2cc(-c3c[nH]c4ccncc34)ccc2c1` [Compound 13685], at androgen receptor (AR), the “eGFP IC50” value was “Inactive”. In addition, in the assay on PSA, the “PSA IC50” value is “Inactive”.

For `Oc1cc2ccccc2cc1-c1nc2ccccc2[nH]1` [Compound 13687], on androgen receptor (AR), the “eGFP IC50” value is recorded as “Inactive”. Also, the “PSA IC50” value with PSA was “Inactive”.

Consider `Fc1cccc2ccc(-c3c[nH]c4ccccc34)nc12` [Compound 13688], for which the negative-log IC50 (pIC50) on androgen receptor (AR) is 7.16; in the assay with PSA (Homo sapiens, 72 h), 7.17.

With `O=[N+]([O-])c1cccc2nc(-c3c[nH]c4ccccc34)ccc12` [Compound 13689], the “eGFP IC50” value at androgen receptor (AR) is on record as “Inactive”. Moreover, in the assay on PSA, the “PSA IC50” value is reported as “Inactive”.

`Fc1cccc2nc(-c3c[nH]c4ccccc34)ccc12` [Compound 13690]: on androgen receptor (AR), the “eGFP IC50” value is recorded as “Inactive”. Further, the “PSA IC50” value in the assay with PSA is reported as “Inactive”.

With `CNC(=O)c1cccc2nc(-c3c[nH]c4ccccc34)ccc12` [Compound 13691], the pIC50 at androgen receptor (AR) is 6.40; with PSA (Homo sapiens, 72 h), 6.32.

For `Fc1cc2[nH]cc(-c3ccc4c(F)cccc4n3)c2cc1F` [Compound 13693], the pIC50 was 6.96 at androgen receptor (AR) and 6.92 in the assay with PSA (Homo sapiens, 72 h).

`Fc1ccc2ccc(-c3c[nH]c4c(Cl)cccc34)nc2c1` [Compound 13694]: the negative logarithm of the IC50 (pIC50) on androgen receptor (AR) was 7.15; in the assay with PSA (Homo sapiens, 72 h), 7.17.

For the molecule `Fc1cc(F)c2[nH]cc(-c3ccc4cccc(F)c4n3)c2c1` [Compound 13695], the pIC50 was 7.16 on androgen receptor (AR) and 7.06 with PSA (Homo sapiens, 72 h).

Regarding `CNC(=O)c1cccc2nc(-c3c[nH]c4c(F)cc(F)cc34)ccc12` [Compound 13696], the pIC50 on androgen receptor (AR) was 7.38; in the assay with PSA (Homo sapiens, 72 h), 7.38.

As for `Fc1cccc2ccc(-c3c[nH]c4c(F)cccc34)nc12` [Compound 13697], the pIC50 on androgen receptor (AR) was 7.54; in the assay on PSA (Homo sapiens, 72 h), 7.54.

Take `Fc1cccc2c(-c3ccc4cccc(Cl)c4n3)c[nH]c12` [Compound 13698]: the negative logarithm of the IC50 (pIC50) on androgen receptor (AR) was 7.39; with PSA (Homo sapiens, 72 h), 7.39.

For `Cc1cccc2c(-c3cnc4ccccc4n3)c[nH]c12` [Compound 13699], the negative logarithm of the IC50 (pIC50) at androgen receptor (AR) and in the assay with PSA was 7.14 in each case.

For `c1ccc2c(Cc3nn[nH]n3)c[nH]c2c1` [Compound 13700], the “eGFP IC50” value at androgen receptor (AR) is “Inactive”. In the assay on PSA, the “PSA IC50” value is reported as “Inactive”.

Turning to `c1ccc2c(-c3nn[nH]n3)c[nH]c2c1` [Compound 13701], the “eGFP IC50” value at androgen receptor (AR) was “Inactive”. Further, in the assay on PSA, the “PSA IC50” value was “Inactive”.

Consider `O=[N+]([O-])c1cccc2c(-c3ccc4ccccc4c3)c[nH]c12` [Compound 13702], for which the pIC50 on androgen receptor (AR) is 6.68; in the assay with PSA (Homo sapiens, 72 h), 6.85.

On to `Cc1cc(F)cc2c(-c3ccc4ccc(F)cc4n3)n[nH]c12` [Compound 13704], for which the pIC50 is 6.46 on androgen receptor (AR) and 6.77 in the assay with PSA (Homo sapiens, 72 h).

As to `Cc1cc(F)cc2c(-c3cnc4cccc(Cl)c4n3)c[nH]c12` [Compound 13705], at androgen receptor (AR), the “eGFP IC50” value is given as “Inactive”. The “PSA IC50” value with PSA is given as “Inactive”.

With `Clc1cccc2nc(-c3c[nH]c4ccccc34)ccc12` [Compound 13706], at androgen receptor (AR), the “eGFP IC50” value was “Inactive”. Also, in the assay with PSA, the “PSA IC50” value was “Inactive”.

On to `Fc1cc2[nH]cc(-c3ccc4c(Cl)cccc4n3)c2cc1F` [Compound 13707], for which the “eGFP IC50” value on androgen receptor (AR) is “Inactive”. Moreover, the “PSA IC50” value with PSA was “Inactive”.

With `Cc1cc(F)cc2c(-c3ccc4cccc(F)c4n3)c[nH]c12` [Compound 13708], the pIC50 on androgen receptor (AR) is 6.54; in the assay with PSA (Homo sapiens, 72 h), 6.54.

Consider `Cc1cc(F)cc2c(-c3ccc4c(Cl)cccc4n3)c[nH]c12` [Compound 13709], for which the “eGFP IC50” value on androgen receptor (AR) is given as “Inactive”. In addition, the “PSA IC50” value in the assay with PSA is recorded as “Inactive”.

On to `CNC(=O)c1cccc2nc(-c3c[nH]c4c(C)cc(F)cc34)ccc12` [Compound 13710], for which the negative logarithm of the IC50 (pIC50) at androgen receptor (AR) is 6.64; in the assay with PSA (Homo sapiens, 72 h), 6.60.

On to `O=[N+]([O-])c1cccc2nc(-c3c[nH]c4c(Cl)cccc34)ccc12` [Compound 13711], for which the “eGFP IC50” value on androgen receptor (AR) is reported as “Inactive”. Further, the “PSA IC50” value with PSA is listed as “Inactive”.

As to `Fc1cccc2nc(-c3c[nH]c4c(Cl)cccc34)ccc12` [Compound 13712], the “eGFP IC50” value on androgen receptor (AR) is listed as “Inactive”. In addition, in the assay on PSA, the “PSA IC50” value is recorded as “Inactive”.

Take `Fc1cccc2nc(-c3c[nH]c4c(Br)cccc34)ccc12` [Compound 13714]: at androgen receptor (AR), the “eGFP IC50” value is “Inactive”. The “PSA IC50” value with PSA is recorded as “Inactive”.

Turning to `Cc1cc(F)cc2c(-c3cnc4ccc(F)cc4n3)c[nH]c12` [Compound 13717], the pIC50 on androgen receptor (AR) was 6.31; with PSA (Homo sapiens, 72 h), 6.48.

On to `Cc1cc(F)cc2c(-c3cnc4ccc(F)cc4n3)n[nH]c12` [Compound 13718], for which the pIC50 on androgen receptor (AR) is 6.43; in the assay with PSA (Homo sapiens, 72 h), 6.96.

For `Fc1cc(Cl)cc2cc[nH]c12` [Compound 13720], the “eGFP IC50” value at androgen receptor (AR) was “Inactive”. In the assay on PSA, the “PSA IC50” value was “Inactive”.

As for `Fc1cc(Cl)c2[nH]ccc2c1` [Compound 13721], on androgen receptor (AR), the “eGFP IC50” value is reported as “Inactive”. The “PSA IC50” value with PSA was “Inactive”.

For the molecule `Cc1cc(F)cc2cc[nH]c12` [Compound 13722], the “eGFP IC50” value on androgen receptor (AR) is on record as “Inactive”. Further, in the assay on PSA, the “PSA IC50” value is “Inactive”.

For `Fc1cc(F)c2[nH]ccc2c1` [Compound 13723], on androgen receptor (AR), the “eGFP IC50” value is given as “Inactive”. Further, the “PSA IC50” value in the assay with PSA is reported as “Inactive”.
